Source: patent publication US12338262B2 (Forward Therapeutics, Inc., priority 2022, dated 2025)

Target: TNF-α (Homo sapiens, UniProt P01375)
Assay: TNF-α Induced HEK Blue Cellular Assay
Type: cell-based
Settings: HEK Blue TNFα reporter cells, TNF-α 100 pg/ml, 24 hrs at 37° C., secreted alkaline phosphatase (QUANTI-Blue, 620 nm)
Summary of the method: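 Read-out is SEAP via QUANTI-Blue absorbance at 620 nm after a 24 h, 37 °C incubation of reporter HEK Blue cells with 100 pg/ml TNF-α plus compound at final […]–0.5 nM. Percent inhibition normalised to DMSO ± stimulation; 4-parameter logistic fit gives IC50.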

Sequence of TNF-α (P01375 77-233 limits assumed): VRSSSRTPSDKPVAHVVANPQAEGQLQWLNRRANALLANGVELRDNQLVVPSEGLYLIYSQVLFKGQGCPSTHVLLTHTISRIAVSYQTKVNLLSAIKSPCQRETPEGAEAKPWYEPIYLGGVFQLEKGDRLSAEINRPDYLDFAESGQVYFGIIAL

| SMILES | IC50 |
| --- | --- |
| CC[C@H](Nc1c(Cl)c(C)nc2cc(F)c(-c3ccc(P(C)(C)=O)nc3)nc12)c1ccccn1 [Example 76, 3-chloro-6-[6-(dimethylphosphoryl)pyridin-3-yl]-7-fluoro-2-methyl-N-[(1S)-1-(pyridin-2-yl)propyl]-1,5-naphthyridin-4-amine] | ≤ 0.1 µM |
| Cc1nc2cc(F)c(-c3ccc(P(C)(C)=O)nc3)nc2c(N[C@H](C)c2cccc(Cl)c2F)c1Cl [Example 78, 3-chloro-N-[(1R)-1-(3-chloro-2-fluorophenyl)ethyl]-6-[6-(dimethylphosphoryl)pyridin-3-yl]-7-fluoro-2-methyl-1,5-naphthyridin-4-amine] | ≤ 0.1 µM |
| CC[C@@H](Nc1c(Cl)c(C)nc2cc(F)c(-c3ccc(P(C)(C)=O)nc3)nc12)c1ccccc1 [Example 79, 3-chloro-6-[6-(dimethylphosphoryl)pyridin-3-yl]-7-fluoro-2-methyl-N-[(1R)-1-phenylpropyl]-1,5-naphthyridin-4-amine] | ≤ 0.1 µM |
| Cc1nc2cc(F)c(-c3ccc(P(C)(C)=O)nc3)nc2c(N[C@H](C)c2ccccn2)c1Cl [Example 83, 3-chloro-6-[6-(dimethylphosphoryl)pyridin-3-yl]-7-fluoro-2-methyl-N-[(1R)-1-(pyridin-2-yl)ethyl]-1,5-naphthyridin-4-amine] | ≤ 1 µM |
| CC[C@@H](Nc1c(Cl)c(C)nc2cc(F)c(-c3ccc(P(C)(C)=O)nc3)nc12)c1ccccn1 [Example 84, 3-chloro-6-[6-(dimethylphosphoryl)pyridin-3-yl]-7-fluoro-2-methyl-N-[(1R)-1-(pyridin-2-yl)propyl]-1,5-naphthyridin-4-amine] | ≤ 1 µM |
| Cc1nc2cc(F)c(-c3ccc(P(C)(C)=O)nc3)nc2c(N[C@H](C)c2cc(F)cc(F)c2)c1Cl [Example 85, 3-chloro-N-[(1R)-1-(3,5-difluorophenyl)ethyl]-6-[6-(dimethylphosphoryl)pyridin-3-yl]-7-fluoro-2-methyl-1,5-naphthyridin-4-amine] | ≤ 1 µM |

Second part, the compound after the results:

| IC50 | SMILES |
| --- | --- |
| ≤ 1 µM | CC[C@@H](Nc1c(Cl)c(C)nc2cc(F)c(-c3ccc(P(C)(C)=O)nc3)c(F)c12)c1ncccc1F [Example 74, (R)-(5-(3-chloro-5,7-difluoro-4-((1-(3-fluoropyridin-2-yl)propyl)amino)-2-methylquinolin-6-yl)pyridin-2-yl)dimethylphosphine oxide] |
| ≤ 0.1 µM | Cc1nc2cc(F)c(-c3ccc(P(C)(C)=O)nc3)nc2c(N[C@H](C)c2cccnc2)c1Cl [Example 75, 3-chloro-6-[6-(dimethylphosphoryl)pyridin-3-yl]-7-fluoro-2-methyl-N-[(1R)-1-(pyridin-3-yl)ethyl]-1,5-naphthyridin-4-amine] |
| ≤ 1 µM | CC[C@@H](Nc1c(F)c(C)nc2cc(F)c(-c3ccc(P(C)(C)=O)nc3)nc12)c1ccccc1F [Example 77, 6-[6-(dimethylphosphoryl)pyridin-3-yl]-3,7-difluoro-N-[(1R)-1-(2-fluorophenyl)propyl]-2-methyl-1,5-naphthyridin-4-amine] |
| ≤ 1 µM | Cc1nc2cc(F)c(-c3ccc(P(C)(C)=O)nc3)nc2c(N[C@H](C)c2ccc(F)c(F)c2)c1Cl [Example 80, 3-chloro-N-[(1R)-1-(3,4-difluorophenyl)ethyl]-6-[6-(dimethylphosphoryl)pyridin-3-yl]-7-fluoro-2-methyl-1,5-naphthyridin-4-amine] |
| 10 to 30 µM | COc1cc([C@@H](C)Nc2c(Cl)c(C)nc3cc(F)c(-c4ccc(P(C)(C)=O)nc4)nc23)ccn1 [Example 81, 3-chloro-6-[6-(dimethylphosphoryl)pyridin-3-yl]-7-fluoro-N-[(1R)-1-(2-methoxypyridin-4-yl)ethyl]-2-methyl-1,5-naphthyridin-4-amine] |
| ≤ 0.1 µM | CCC(Nc1c(Cl)c(C)nc2cc(F)c(-c3ccc(P(C)(C)=O)nc3)nc12)c1cccnc1 (stereo not drawn) [Example 82, 3-chloro-6-[6-(dimethylphosphoryl)pyridin-3-yl]-7-fluoro-2-methyl-N-[1-(pyridin-3-yl)propyl]-1,5-naphthyridin-4-amine] |
